This is an account of results in patent US9234018B2, “Compositions and methods for the treatment of VprBP-related cancers” (University of Southern California, priority 2013, dated 2016).

SMILES strings stand for the structures. Some results are limits rather than exact numbers.

The target of one data set is AKT1 (Homo sapiens, UniProt P31749). The data set can be described thus: Kinase selectivity panel. Format: biochemical.
The next data set concerns the target CHK2 (Homo sapiens, UniProt O96017). The data set can be described thus: Kinase selectivity panel. Format: biochemical.
In a further data set the target is HCK (Homo sapiens, UniProt P08631). The data set can be described thus: Kinase selectivity panel. In kind it is biochemical.
HCK, sequence (P08631 whole entry): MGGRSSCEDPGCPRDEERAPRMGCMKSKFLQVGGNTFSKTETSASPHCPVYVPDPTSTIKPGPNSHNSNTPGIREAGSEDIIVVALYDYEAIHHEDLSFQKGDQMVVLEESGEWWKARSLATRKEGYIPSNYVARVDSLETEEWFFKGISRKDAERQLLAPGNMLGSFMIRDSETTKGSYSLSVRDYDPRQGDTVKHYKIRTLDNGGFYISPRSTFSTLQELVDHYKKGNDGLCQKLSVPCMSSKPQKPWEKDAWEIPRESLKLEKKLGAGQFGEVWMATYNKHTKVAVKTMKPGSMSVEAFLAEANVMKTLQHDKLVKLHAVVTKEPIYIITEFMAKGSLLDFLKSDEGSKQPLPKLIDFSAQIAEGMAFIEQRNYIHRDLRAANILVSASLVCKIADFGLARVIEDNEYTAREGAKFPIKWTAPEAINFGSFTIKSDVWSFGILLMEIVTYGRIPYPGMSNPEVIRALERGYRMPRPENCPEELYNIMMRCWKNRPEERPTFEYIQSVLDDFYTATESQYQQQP
A further data set has as its target PLK2 (Homo sapiens, UniProt Q9NYY3). The data set can be described thus: Kinase selectivity panel. Format: biochemical.
A further data set deals with AKT3 (Homo sapiens, UniProt Q9Y243). The data set can be described thus: Kinase selectivity panel. In kind it is biochemical.
AKT3, sequence (Q9Y243 whole entry): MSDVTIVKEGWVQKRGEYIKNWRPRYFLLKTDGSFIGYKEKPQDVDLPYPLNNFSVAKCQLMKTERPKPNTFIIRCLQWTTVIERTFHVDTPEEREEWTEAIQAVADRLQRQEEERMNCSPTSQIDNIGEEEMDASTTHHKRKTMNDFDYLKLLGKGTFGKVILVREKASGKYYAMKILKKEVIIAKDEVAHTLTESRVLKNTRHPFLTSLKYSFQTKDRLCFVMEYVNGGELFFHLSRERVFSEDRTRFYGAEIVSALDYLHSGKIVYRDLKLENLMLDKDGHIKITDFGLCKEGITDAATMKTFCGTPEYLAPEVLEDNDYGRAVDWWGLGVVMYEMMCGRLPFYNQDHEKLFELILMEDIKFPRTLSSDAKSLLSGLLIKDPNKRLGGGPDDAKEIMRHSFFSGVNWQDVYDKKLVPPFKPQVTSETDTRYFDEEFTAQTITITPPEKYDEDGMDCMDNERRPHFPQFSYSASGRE
Another data set deals with DU145 cells. As to the kind of experiment: Cell proliferation (MTT) and soft agar colony formation. Format: cell-based, human. Conditions: MTT 72 h and soft agar colonies. On the procedure:
Cell proliferation was assessed by the 3-(4,5-dimethylthiazol-2-yl)-2,5-diphenyltetrazolium bromide (MTT) assay as previously described (Kim, K. et al. (2012) Mol. Cell Biol. 32:783-796). To evaluate IC50 of compound B32B3 and B20H6, DU145 cells were treated with various concentrations (0.001, 0.005, 0.01, 0.05, 0.1, 1, 5, 10, and 20 μM) of compounds for 72 h and viability was measured by MTT assays. For soft agar colony formation assays, DU145 cells were treated with B32B3 (0.5, 1, and 3 μM). Cells were suspended in semisolid medium (DMEM 10% FBS plus 0.3% ultra pure noble agar) at concentrations of 2×10^5 cells/ml, added over a layer of 0.6% agar in RPMI on 35 mm plate and incubated for an additional 21 days. The colonies in each well were stained with 0.005% crystal violet in 20% ethanol, counted and photographed. All assays were run in triplicate, and results presented are the average of three individual experiments.

The target in the next data set is AURKA (Homo sapiens, UniProt O14965). The data set can be described thus: Kinase selectivity panel. Format: biochemical.
AURKA, sequence (O14965 whole entry): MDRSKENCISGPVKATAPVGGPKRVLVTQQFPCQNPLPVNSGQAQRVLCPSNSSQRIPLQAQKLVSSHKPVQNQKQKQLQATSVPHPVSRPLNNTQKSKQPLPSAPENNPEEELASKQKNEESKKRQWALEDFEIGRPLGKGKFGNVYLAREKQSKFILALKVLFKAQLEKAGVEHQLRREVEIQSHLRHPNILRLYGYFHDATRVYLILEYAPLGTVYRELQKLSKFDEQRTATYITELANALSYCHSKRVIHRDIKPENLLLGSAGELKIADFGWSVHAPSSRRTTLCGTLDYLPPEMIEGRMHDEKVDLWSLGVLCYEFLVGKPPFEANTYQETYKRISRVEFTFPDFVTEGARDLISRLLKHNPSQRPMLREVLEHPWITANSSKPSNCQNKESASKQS
For another data set, the target named is DYRK1 (Homo sapiens, UniProt Q13627). The data set can be described thus: Kinase selectivity panel. Format: biochemical.
The test system of data set [1] is VprBP target genes in DU145 cells. As to the kind of experiment: qRT-PCR of VprBP target genes. Format: cell-based, human. Conditions: B32B3 1 mM. On the procedure: Total RNA was isolated from mock- or VprBP-depleted cells using the TRIzol reagent according to the manufacturer's instructions (Invitrogen). Gene expression microarray experiments were conducted using a whole-genome expression array (Human HT-12 v4 Expression BeadChip, Illumina). This high density oligonucleotide array chip targets more than 47000 probe sequences derived from National Center for Biotechnology Information Reference Sequence (NCBI) RefSeq Release 38 (Nov. 7, 2009) and other sources. Data were processed and analyzed by the ArrayPipe software (www.pathogenomics.ca/arraypipe). For qRT-PCR, total RNA was extracted as described for microarray and subjected to RT reactions with the use of PerfeCta® SYBR Green FastMix (Quanta BIOSCIENCES) and an iCycler IQ5 real time cycler (Bio-Rad). The specificity of the amplification reactions were monitored by melting curve analysis. Assays were normalized to β-actin mRNA levels. The following primers were used for qRT-PCR: […]

Another data set concerns the target BCK. As to the kind of experiment: Kinase selectivity panel. Format: biochemical, human.
Another data set addresses GSK3β (Homo sapiens, UniProt P49841). The data set can be described thus: Kinase selectivity panel. In kind it is biochemical.
Another data set deals with PKN2 (Homo sapiens, UniProt Q16513). As to the kind of experiment: Kinase selectivity panel. Format: biochemical.
PKN2, sequence (Q16513 whole entry): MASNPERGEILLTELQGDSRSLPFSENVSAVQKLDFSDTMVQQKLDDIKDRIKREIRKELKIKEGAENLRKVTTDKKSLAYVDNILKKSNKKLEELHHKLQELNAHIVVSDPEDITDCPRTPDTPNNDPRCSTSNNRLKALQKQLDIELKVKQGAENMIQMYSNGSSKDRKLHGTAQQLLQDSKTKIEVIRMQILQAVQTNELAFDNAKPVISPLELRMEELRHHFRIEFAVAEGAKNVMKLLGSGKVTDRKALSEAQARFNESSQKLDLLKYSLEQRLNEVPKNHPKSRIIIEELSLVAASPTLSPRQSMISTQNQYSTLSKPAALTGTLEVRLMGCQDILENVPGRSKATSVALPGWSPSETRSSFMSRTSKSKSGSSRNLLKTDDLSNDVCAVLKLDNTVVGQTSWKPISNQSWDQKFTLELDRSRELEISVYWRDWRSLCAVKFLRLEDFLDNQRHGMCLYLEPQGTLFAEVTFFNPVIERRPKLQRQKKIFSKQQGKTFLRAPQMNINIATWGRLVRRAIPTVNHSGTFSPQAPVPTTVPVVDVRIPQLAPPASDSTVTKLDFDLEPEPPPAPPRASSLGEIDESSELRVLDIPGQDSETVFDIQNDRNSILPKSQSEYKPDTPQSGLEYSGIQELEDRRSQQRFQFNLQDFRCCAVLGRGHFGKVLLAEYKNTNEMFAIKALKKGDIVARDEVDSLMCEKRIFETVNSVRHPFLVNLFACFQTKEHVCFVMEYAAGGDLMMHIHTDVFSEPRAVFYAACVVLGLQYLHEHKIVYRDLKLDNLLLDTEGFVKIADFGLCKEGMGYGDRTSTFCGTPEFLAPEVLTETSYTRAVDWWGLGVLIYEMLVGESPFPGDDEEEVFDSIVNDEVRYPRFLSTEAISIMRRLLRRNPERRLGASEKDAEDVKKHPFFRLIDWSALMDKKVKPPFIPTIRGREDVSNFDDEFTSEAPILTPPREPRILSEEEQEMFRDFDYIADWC
In another data set the test system is MLC cells. The data set can be described thus: Cell viability by MTT assay in normal cells. In kind it is cell-based. Conditions: concentrations up to 5 mM, 24 h; cells lacking VprBP-mediated H2AT120p. On the procedure: FIGS. 8A-8I show characterization of B32B3 as a small-molecule VprBP kinase inhibitor, related to FIG. 4. (FIG. 8A) DU145 cells were infected with mock lentiviruse, VprBP-expressing shRNA lentivirus or Flag-VprBP-expressing lentivirus, and treated with the indicated concentrations of B32B3 for 24 h. Changes in H2AT120p as the results of B32B3 treatment were determined by the quantitative estimates of Western band intensity. Results represent the means±S.D. of three independent experiments. (FIG. 8B) DU145 cells were treated with the indicated concentrations of B32B3 and B20H6 for 72 h. Cell viability was measured by the MTT assay and was normalized to cells not exposed to the compounds. Data represent the means±S.D. of three independent experiments. […] (FIG. 8D) MLC cells were treated with B32B3 at the indicated doses for 24 h, and cell viability was assessed by MTT assay. […] (FIG. 8E) VprBP-mediated H2AT120p was analyzed in the presence of increasing concentrations of ATP and B32B3. (FIG. 8F) Body weights of vehicle or B32B3-treated mice were monitored during the treatment period. […] The stability of B32B3 in plasma was determined by LC-MS/MS at the indicated time points. […] Blood samples were collected at the indicated time points, and the concentration of B32B3 in plasma was analyzed by HPLC coupled mass spectrophotometry. […]

A short description of data set [2]: B32B3 stability assessment in plasma. In kind it is in vitro ADME. The note with it: mouse plasma. The protocol: To assess the metabolic stability of B32B3 in mouse, dog, monkey, and human plasma, the compound was spiked into blank plasma to a concentration of 10 μM. At 0, 15, 30, 60, 90, and 120 min time points, a 30 μl aliquot was collected and mixed with 270 μl acetonitrile solution for protein precipitation. After centrifugation, the supernatant was analyzed by LC-MS/MS. In vitro half-life of B32B3 in plasma was calculated using the slope (k) of the log-linear regression from the concentration remaining parent compound versus time. T1/2=−ln 2/k Mouse Pharmacokinetics of B32B3

Another data set has as its target CDK18 (Homo sapiens, UniProt Q07002). As to the kind of experiment: Kinase selectivity panel. Format: biochemical.
In a further data set the target is CDK9 (Homo sapiens, UniProt P50750). As to the kind of experiment: Kinase selectivity panel. Format: biochemical.
CDK9, sequence (P50750 whole entry): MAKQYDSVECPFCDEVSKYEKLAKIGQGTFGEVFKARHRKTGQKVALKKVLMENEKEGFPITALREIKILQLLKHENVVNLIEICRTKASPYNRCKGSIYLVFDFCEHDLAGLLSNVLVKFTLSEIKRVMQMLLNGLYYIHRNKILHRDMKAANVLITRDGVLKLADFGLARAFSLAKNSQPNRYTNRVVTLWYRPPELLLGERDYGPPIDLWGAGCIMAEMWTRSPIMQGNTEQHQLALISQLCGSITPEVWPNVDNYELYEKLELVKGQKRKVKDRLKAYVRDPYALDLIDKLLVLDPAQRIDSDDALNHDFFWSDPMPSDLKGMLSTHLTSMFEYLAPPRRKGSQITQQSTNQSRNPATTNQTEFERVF
CDK9, sequence (O60563 whole entry partner): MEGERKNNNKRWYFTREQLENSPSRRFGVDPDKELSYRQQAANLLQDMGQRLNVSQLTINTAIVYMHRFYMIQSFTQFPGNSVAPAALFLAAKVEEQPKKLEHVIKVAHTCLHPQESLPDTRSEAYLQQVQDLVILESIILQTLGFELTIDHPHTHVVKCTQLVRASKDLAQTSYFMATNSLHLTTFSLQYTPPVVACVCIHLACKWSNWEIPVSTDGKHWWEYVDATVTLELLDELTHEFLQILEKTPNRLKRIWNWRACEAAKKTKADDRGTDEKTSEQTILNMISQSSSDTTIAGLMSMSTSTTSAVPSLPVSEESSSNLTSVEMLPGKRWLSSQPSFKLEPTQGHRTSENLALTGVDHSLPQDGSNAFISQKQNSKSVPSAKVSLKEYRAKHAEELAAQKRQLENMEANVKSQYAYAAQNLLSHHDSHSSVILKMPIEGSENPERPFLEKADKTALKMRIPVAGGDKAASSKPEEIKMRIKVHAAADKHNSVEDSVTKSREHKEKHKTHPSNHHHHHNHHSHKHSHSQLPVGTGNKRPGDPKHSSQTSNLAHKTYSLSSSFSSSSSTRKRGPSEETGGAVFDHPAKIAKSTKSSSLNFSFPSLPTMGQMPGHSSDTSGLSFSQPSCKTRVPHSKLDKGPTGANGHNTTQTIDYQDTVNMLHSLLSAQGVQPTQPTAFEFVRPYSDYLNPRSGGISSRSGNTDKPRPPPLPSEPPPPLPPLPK

CHK2, sequence (O96017 whole entry): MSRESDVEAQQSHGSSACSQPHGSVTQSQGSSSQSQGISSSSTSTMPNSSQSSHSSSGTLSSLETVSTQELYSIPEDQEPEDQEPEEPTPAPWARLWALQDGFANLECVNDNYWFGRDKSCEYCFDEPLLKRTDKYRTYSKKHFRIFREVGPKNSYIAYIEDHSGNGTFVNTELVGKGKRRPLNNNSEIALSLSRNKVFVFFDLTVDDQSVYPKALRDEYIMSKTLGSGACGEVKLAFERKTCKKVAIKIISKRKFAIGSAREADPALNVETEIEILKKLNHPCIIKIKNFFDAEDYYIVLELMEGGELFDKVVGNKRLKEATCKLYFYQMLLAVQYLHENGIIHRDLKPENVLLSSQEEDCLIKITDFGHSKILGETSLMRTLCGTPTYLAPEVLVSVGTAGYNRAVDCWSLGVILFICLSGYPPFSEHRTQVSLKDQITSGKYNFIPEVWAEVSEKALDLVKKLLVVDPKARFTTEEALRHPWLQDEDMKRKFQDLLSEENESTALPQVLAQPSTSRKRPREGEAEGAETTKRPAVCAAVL
PLK2, sequence (Q9NYY3 whole entry): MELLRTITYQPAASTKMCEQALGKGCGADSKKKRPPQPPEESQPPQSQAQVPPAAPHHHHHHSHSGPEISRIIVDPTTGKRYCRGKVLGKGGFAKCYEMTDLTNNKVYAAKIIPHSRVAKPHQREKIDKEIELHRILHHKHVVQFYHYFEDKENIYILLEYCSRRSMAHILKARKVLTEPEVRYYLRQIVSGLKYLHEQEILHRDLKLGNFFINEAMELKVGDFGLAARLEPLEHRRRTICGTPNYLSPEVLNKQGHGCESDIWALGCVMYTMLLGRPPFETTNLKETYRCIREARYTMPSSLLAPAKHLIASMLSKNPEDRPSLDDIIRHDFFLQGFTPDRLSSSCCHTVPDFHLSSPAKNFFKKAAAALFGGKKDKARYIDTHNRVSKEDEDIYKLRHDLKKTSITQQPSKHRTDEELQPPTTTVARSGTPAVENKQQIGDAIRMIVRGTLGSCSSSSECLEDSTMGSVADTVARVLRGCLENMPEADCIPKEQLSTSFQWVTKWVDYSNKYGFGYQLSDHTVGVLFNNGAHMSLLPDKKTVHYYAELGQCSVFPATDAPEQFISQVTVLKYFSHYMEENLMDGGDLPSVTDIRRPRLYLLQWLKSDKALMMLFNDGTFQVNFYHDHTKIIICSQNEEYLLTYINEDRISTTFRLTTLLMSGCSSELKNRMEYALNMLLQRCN

Turning to `c1ccc2c(CNNc3ncnc4sc5c(c34)CCCC5)c[nH]c2c1` [B32B3], the IC50 against AKT1, on CHK2, on HCK, at PLK2, against AKT3 and at AURKA was above 10 µM each time. The half-maximal inhibitory concentration (IC50) against DYRK1, against BCK, against GSK3β, against PKN2, against CDK18 and against CDK9 was above 10 µM throughout. Further, the “Effect on cell proliferation / cell growth” value with DU145 cells was “inhibition of cell proliferation”. In addition, in [1], the “Expression of VprBP target genes” value is “higher expression of VprBP target genes”. The “Effect on proliferation of MLC cells” value with MLC cells was “minimally antagonized”. In data set [2], this molecule showed a half-life at 10 μM of around 7 h.
